Experimental data as given in PubChem BioAssay (NCI).
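Interpolation was linear, between the two tested concentrations surrounding the appropriate level; five concentrations were tested over 48 hours in 96-well plates. The concentration for 50% growth inhibition is given as GI50. TGI: concentration producing complete growth inhibition.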

Assays:
Test in all cases: NCI anticancer screen, dose series, 48 h
RPMI-8226 leukemia = test system: RPMI-8226 leukemia
HOP-92 NSCLC = test system: HOP-92 NSCLC
SF-539 CNS = test system: SF-539 CNS
BT-549 breast = test system: BT-549 breast
NCI-H522 lung = test system: NCI-H522 lung
MALME-3M melanoma = test system: MALME-3M melanoma
KM12 colon = test system: KM12 colon
HOP-62 NSCLC = test system: HOP-62 NSCLC
SK-OV-3 ovarian = test system: SK-OV-3 ovarian
COLO 205 colon = test system: COLO 205 colon
DU-145 prostate = test system: DU-145 prostate
SR leukemia = test system: SR leukemia
OVCAR-3 ovarian = test system: OVCAR-3 ovarian
CAKI-1 renal = test system: CAKI-1 renal
PC-3 prostate = test system: PC-3 prostate
NCI-H23 lung = test system: NCI-H23 lung
SW-620 colon = test system: SW-620 colon
HCC-2998 colon = test system: HCC-2998 colon
HCT-116 colon = test system: HCT-116 colon
MDA-MB-435 = test system: MDA-MB-435
A549 NSCLC = test system: A549 NSCLC
HT29 colon = test system: HT29 colon
UACC-257 melanoma = test system: UACC-257 melanoma
SK-MEL-28 melanoma = test system: SK-MEL-28 melanoma
OVCAR-5 ovarian = test system: OVCAR-5 ovarian
SF-268 CNS = test system: SF-268 CNS
UACC-62 melanoma = test system: UACC-62 melanoma
MOLT-4 leukemia = test system: MOLT-4 leukemia
M14 melanoma = test system: M14 melanoma
HCT-15 colon = test system: HCT-15 colon
OVCAR-8 ovarian = test system: OVCAR-8 ovarian
IGROV1 ovarian = test system: IGROV1 ovarian
SK-MEL-5 melanoma = test system: SK-MEL-5 melanoma
EKVX NSCLC = test system: EKVX NSCLC
TK-10 renal = test system: TK-10 renal
A498 renal = test system: A498 renal
786-0 renal = test system: 786-0 renal
NCI-H460 lung = test system: NCI-H460 lung
K-562 leukemia = test system: K-562 leukemia
SNB-19 CNS = test system: SNB-19 CNS
U251 CNS = test system: U251 CNS
NCI-H226 lung = test system: NCI-H226 lung
SN12C renal = test system: SN12C renal
NCI/ADR-RES ovarian = test system: NCI/ADR-RES ovarian
SF-295 CNS = test system: SF-295 CNS
OVCAR-4 ovarian = test system: OVCAR-4 ovarian
MDA-MB-468 breast = test system: MDA-MB-468 breast
RXF 393 renal = test system: RXF 393 renal
HS 578T breast = test system: HS 578T breast
CCRF-CEM leukemia = test system: CCRF-CEM leukemia
T-47D breast = test system: T-47D breast
MCF7 breast = test system: MCF7 breast
HL-60(TB) leukemia = test system: HL-60(TB) leukemia
LOX IMVI melanoma = test system: LOX IMVI melanoma
ACHN renal = test system: ACHN renal

COc1ccc2ccccc2c1/C=C1\SC(=Nc2ccc(O)cc2)NC1=O
GI50 (RPMI-8226 leukemia): 2.59 µM
TGI (RPMI-8226 leukemia): 9.45 µM
GI50 (HOP-92 NSCLC): 2.05 µM
TGI (HOP-92 NSCLC): 20.3 µM
GI50 (SF-539 CNS): 0.517 µM
TGI (SF-539 CNS): 3.4 µM
GI50 (BT-549 breast): 1.04 µM
TGI (BT-549 breast): 4.54 µM
GI50 (NCI-H522 lung): 0.422 µM
TGI (NCI-H522 lung): 2.22 µM
GI50 (MALME-3M melanoma): 1.02 µM
TGI (MALME-3M melanoma): 14.4 µM
GI50 (KM12 colon): 1.19 µM
TGI (KM12 colon): 14.8 µM
GI50 (HOP-62 NSCLC): 2.58 µM
TGI (HOP-62 NSCLC): 13.6 µM
GI50 (SK-OV-3 ovarian): 1.66 µM
TGI (SK-OV-3 ovarian): 18 µM
GI50 (COLO 205 colon): 1.88 µM
TGI (COLO 205 colon): 5.04 µM
GI50 (DU-145 prostate): 2.17 µM
TGI (DU-145 prostate): 19.6 µM
GI50 (SR leukemia): 0.321 µM
TGI (SR leukemia): 12.5 µM
GI50 (OVCAR-3 ovarian): 0.425 µM
TGI (OVCAR-3 ovarian): 11.7 µM
GI50 (CAKI-1 renal): 11.1 µM
TGI (CAKI-1 renal): 46.5 µM
GI50 (PC-3 prostate): 0.798 µM
TGI (PC-3 prostate): 29.1 µM
GI50 (NCI-H23 lung): 1.11 µM
TGI (NCI-H23 lung): 11.3 µM
GI50 (SW-620 colon): 0.437 µM
TGI (SW-620 colon): 15.8 µM
GI50 (HCC-2998 colon): 1.73 µM
TGI (HCC-2998 colon): 12.6 µM
GI50 (HCT-116 colon): 0.432 µM
TGI (HCT-116 colon): 11.6 µM
GI50 (MDA-MB-435): 0.235 µM
TGI (MDA-MB-435): 0.591 µM
GI50 (A549 NSCLC): 2.01 µM
TGI (A549 NSCLC): 16.9 µM
GI50 (HT29 colon): 2.82 µM
TGI (HT29 colon): 7.35 µM
GI50 (UACC-257 melanoma): 0.683 µM
TGI (UACC-257 melanoma): 19.6 µM
GI50 (SK-MEL-28 melanoma): 0.966 µM
TGI (SK-MEL-28 melanoma): 19.9 µM
GI50 (OVCAR-5 ovarian): 3.56 µM
TGI (OVCAR-5 ovarian): 16.2 µM
GI50 (SF-268 CNS): 1.59 µM
TGI (SF-268 CNS): 18.7 µM
GI50 (UACC-62 melanoma): 0.346 µM
TGI (UACC-62 melanoma): 12.5 µM
GI50 (MOLT-4 leukemia): 1.51 µM
TGI (MOLT-4 leukemia): 11.3 µM
GI50 (M14 melanoma): 0.492 µM
TGI (M14 melanoma): 10.8 µM
GI50 (HCT-15 colon): 0.442 µM
TGI (HCT-15 colon): 11.1 µM
GI50 (OVCAR-8 ovarian): 1.58 µM
TGI (OVCAR-8 ovarian): 6.51 µM
GI50 (IGROV1 ovarian): 1.85 µM
TGI (IGROV1 ovarian): 14.4 µM
GI50 (SK-MEL-5 melanoma): 0.54 µM
TGI (SK-MEL-5 melanoma): 2.28 µM
GI50 (EKVX NSCLC): 1.11 µM
TGI (EKVX NSCLC): 17.3 µM
GI50 (TK-10 renal): 4.14 µM
TGI (TK-10 renal): 21.6 µM
GI50 (A498 renal): 3.7 µM
TGI (A498 renal): 16.4 µM
GI50 (786-0 renal): 3.19 µM
TGI (786-0 renal): 21 µM
GI50 (NCI-H460 lung): 0.833 µM
TGI (NCI-H460 lung): 11.3 µM
GI50 (K-562 leukemia): 0.413 µM
TGI (K-562 leukemia): 11.9 µM
GI50 (SNB-19 CNS): 1.8 µM
TGI (SNB-19 CNS): 14 µM
GI50 (U251 CNS): 0.425 µM
TGI (U251 CNS): 11.3 µM
GI50 (NCI-H226 lung): 5.56 µM
TGI (NCI-H226 lung): 34.7 µM
GI50 (SN12C renal): 2.48 µM
TGI (SN12C renal): 13.3 µM
GI50 (NCI/ADR-RES ovarian): 0.95 µM
TGI (NCI/ADR-RES ovarian): 3.8 µM
GI50 (SF-295 CNS): 0.843 µM
TGI (SF-295 CNS): 10.9 µM
GI50 (OVCAR-4 ovarian): 3.81 µM
TGI (OVCAR-4 ovarian): 21.1 µM
GI50 (MDA-MB-468 breast): 0.37 µM
TGI (MDA-MB-468 breast): 1.82 µM
GI50 (RXF 393 renal): 0.272 µM
TGI (RXF 393 renal): 1.71 µM
GI50 (HS 578T breast): 0.4 µM
TGI (HS 578T breast): 11.9 µM
GI50 (CCRF-CEM leukemia): 0.651 µM
TGI (CCRF-CEM leukemia): 30.1 µM
GI50 (T-47D breast): 0.765 µM
TGI (T-47D breast): 31.7 µM
GI50 (MCF7 breast): 0.428 µM
TGI (MCF7 breast): 12.5 µM
GI50 (HL-60(TB) leukemia): 0.431 µM
TGI (HL-60(TB) leukemia): 2.65 µM
GI50 (LOX IMVI melanoma): 0.666 µM
TGI (LOX IMVI melanoma): 12.1 µM
GI50 (ACHN renal): 1.81 µM
TGI (ACHN renal): 16.3 µM
